In article PMC5851651, “Population-specific design of de-immunized protein biotherapeutics” (PLoS Computational Biology, 2018):

How the values were obtained:
DRB1*15:01 = target: T1, DRB1*15:01 (Homo sapiens, UniProt P01903+P01911); assay: REVEAL HLA-Peptide binding assay (ProImmune); details: score relative to high-affinity control peptide, percentage of the control signal
T1 construct: purchased ProImmune
Procedure: (§1) To test the designs, we synthesized twenty overlapping 15-mer peptides containing the introduced mutations and their wild-type counterparts. The peptides maximally covered the predicted epitopes around the mutations of all designed constructs that contained one and two mutations (Supplementary S2 Table). The affinity of these peptides to the three HLA alleles was measured at time zero and after 24 hours (Methods, Supplementary S3 and S4 Tables). We linearly combined the measured relative affinity scores across HLA alleles weighted by their allele frequencies for each peptide respectively to produce a score that approximates the overall immunogenicity (Fig 5A). Results are presented for measurements taken at time point zero. […] Overall, the measured and predicted immunogenicity of the tested peptides correlated well with r = 0.76 (CI95 = [0.48, 0.91], t = 4.885, df = 17, p-value = 1.4e-4; Fig 5A). Next, we compared the predicted and measured gain or loss in immunogenicity for the whole region by reconstructing the targeted region using overlapping peptides. The measured relative scores were linearly combined (as previously) and then normalized to the number of overlapping peptides used in the reconstruction (Fig 5B). The difference in the measured scores between the wild type and mutant regions can be thought of as a proxy for gain or loss in immunogenicity and correlated well to the predicted changes (r = 0.86, CI95 = [0.40, 0.97], t = 4.136, df = 6, p-value = 6.1e-3; Fig 5B).
(§2) In order to experimentally verify our in silico predictions for Factor VIII, we utilized the commercial REVEAL HLA-Peptide binding assay of ProImmune (www.proimmune.com). Peptides were synthesized using the PEPscreen custom library synthesis method, yielding high purity peptides for experimental analysis. HLA-peptide binding was assessed for the three HLA-DRB1 alleles used in this study (DRB1*15:01, DRB1*03:01 and DRB1*07:01). In short, the method compares the affinity of the studied peptide to the affinity of a high-affinity control peptide. Each peptide is then scored for binding to a certain HLA molecule relative to the score of the control peptide and reported as the percentage of the signal generated by the control peptide.

DRB1*07:01 = DRB1*07:01 (Homo sapiens, UniProt P01903+P01911, A100R/A102G/A103Q/D57E/D86V/E43K/F76Y/K127E/L162R/M171V/P40G/Q125H/Q99D/R33Q/R42Y/R54Q/S133A/S66F/T210M/V115G/Y107V/Y59L/Y89S); assay: REVEAL HLA-Peptide binding assay (ProImmune); details: score relative to high-affinity control peptide, percentage of the control signal
Procedure: as §1, §2

DRB1*03:01 = target: T2, DRB1*03:01 (Homo sapiens, UniProt P01903+P01911, A100K/A102G/A103R/A169T/F55Y/I96L/K41T/L162R/M171V/P40S/Q125H/Q178H/Q39Y/R42S/S66N/T106N/T262R/W38E/Y61H); assay: REVEAL HLA-Peptide binding assay (ProImmune); details: score relative to high-affinity control peptide, percentage of the control signal
T2 construct: purchased ProImmune
Procedure: as §1, §2

[1] = tested on: DRB1*15:01, DRB1*03:01 and DRB1*07:01; assay: Experimental immunogenicity score: relative HLA binding combined across alleles, weighted by allele frequency; design: species or system human; key: allele-frequency-weighted sum of binding, % of control peptide signal; details: for Difference to WT (Experimental Score): per peptide against wild-type counterpart; for Experimental Score: per peptide, weights DRB1*15:01 0.162, DRB1*07:01 0.146, DRB1*03:01 0.143
Procedure: as §1
Fig 5 (A) Correlation of experimental and predicted immunogenicity of each peptide. The experimental immunogenicity score of a peptide is defined as the linear combination of the individual experimentally determined relative HLA binding affinity of each HLA allele h ∈ H weighted by the HLA allele frequency. (B) Correlation of experimental and predicted immunogenicity of the whole redesigned region. The summarized immunogenicity score of the whole region is the linear combination of the overlapping peptides used to reconstruct the region, normalized by total number of peptides used. The predicted immunogenicity scores per peptide were computed according to our immunogenicity objective function. The red lines are a fitted linear regression and the red tubes represent their 95-confidence interval.
as §2

[2] = time 0 (H0), listed as VNSLDPPLFTRYLRI
[3] = time 0 (H0), listed as VNSLDPPLLTRYLRI
[4] = time 0 (H0), listed as VNSLDPPLTTRYLRI
[5] = time 0 (H0), listed as VNSLDPPLYTRYLRI
[6] = time 0 (H0), listed as YTRYLRIHPQSWEHQ

DRB1*15:01 (DRB1*15:01; after 24 hours (H24)) | DRB1*15:01 (DRB1*15:01; time 0 (H0)) | DRB1*07:01 (DRB1*07:01; after 24 hours (H24)) | DRB1*07:01 (DRB1*07:01; time 0 (H0)) | DRB1*03:01 (DRB1*03:01; after 24 hours (H24)) | DRB1*03:01 (DRB1*03:01; time 0 (H0)) | Sequence | Difference to WT (Experimental Score) ([1]; after 24 hours (H24)) | Experimental Score ([1]; after 24 hours (H24)) | Difference to WT (Experimental Score) ([1]; time 0 (H0)) | Experimental Score ([1]; time 0 (H0)) | further results
0.000% | 0.427% | 0.497% | 6.490% | 0.165% | 0.165% | VNSLDPPLFTRYLRI [Design M-1, peptide covering L2321F] | 0.042 | 0.096 | -0.356 | 1.040 | DRB1*15:01 (DRB1*15:01; [2]): 0.4%; DRB1*07:01 (DRB1*07:01; [2]): 6.5%; DRB1*03:01 (DRB1*03:01; [2]): 0.2%
0.000% | 7.274% | 0.370% | 0.810% | 0.000% | 0.697% | VNSLDPPLLTRYLRI [WT-1, wild-type peptide of Factor VIII C2 domain, reference compound] | – | 0.054 | – | 1.396 | DRB1*15:01 (DRB1*15:01; [3]): 7.3%; DRB1*07:01 (DRB1*07:01; [3]): 0.8%; DRB1*03:01 (DRB1*03:01; [3]): 0.7%
0.000% | 0.000% | 0.000% | 0.100% | 0.000% | 0.100% | VNSLDPPLTTRYLRI [Design M-2, peptide covering L2321T] | -0.054 | 0.000 | -1.367 | 0.029 | DRB1*15:01 (DRB1*15:01; [4]): 0%; DRB1*07:01 (DRB1*07:01; [4]): 0.1%; DRB1*03:01 (DRB1*03:01; [4]): 0.1%
0.000% | 0.000% | 0.900% | 3.600% | 0.000% | 0.000% | VNSLDPPLYTRYLRI [Design M-3, peptide covering L2321Y] | 0.077 | 0.131 | -0.871 | 0.526 | DRB1*15:01 (DRB1*15:01; [5]): 0%; DRB1*07:01 (DRB1*07:01; [5]): 3.6%; DRB1*03:01 (DRB1*03:01; [5]): 0%
0.700% | 3.876% | 40.700% | 59.728% | 0.200% | 0.155% | YTRYLRIHPQSWEHQ [Design M-12, peptide covering L2321Y, V2333E] | -7.303 | 6.084 | -8.351 | 9.370 | DRB1*15:01 (DRB1*15:01; [6]): 3.9%; DRB1*07:01 (DRB1*07:01; [6]): 59.7%; DRB1*03:01 (DRB1*03:01; [6]): 0.2%
